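Where inhibition never reached the appropriate level, the endpoint shown equals the highest concentration tested. Otherwise, values were interpolated linearly from a five-concentration, 48-hour dose response in 96-well plates. At the TGI there is no net growth.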
Columns and labels:
Assay in all cases: inhibition of tumour cell growth, NCI panel, 48 h
HS 578T breast = system: HS 578T breast
KM12 colon = system: KM12 colon
MDA-N = system: MDA-N
UACC-257 melanoma = system: UACC-257 melanoma
A549 NSCLC = system: A549 NSCLC
MDA-MB-231 breast = system: MDA-MB-231 breast
NCI-H522 lung = system: NCI-H522 lung
IGROV1 ovarian = system: IGROV1 ovarian
NCI-H460 lung = system: NCI-H460 lung
SF-295 CNS = system: SF-295 CNS
U251 CNS = system: U251 CNS
SN12C renal = system: SN12C renal
UACC-62 melanoma = system: UACC-62 melanoma
HOP-92 NSCLC = system: HOP-92 NSCLC
T-47D breast = system: T-47D breast
NCI-H23 lung = system: NCI-H23 lung
SF-268 CNS = system: SF-268 CNS
SK-OV-3 ovarian = system: SK-OV-3 ovarian
ACHN renal = system: ACHN renal
NCI/ADR-RES ovarian = system: NCI/ADR-RES ovarian
TK-10 renal = system: TK-10 renal
SR leukemia = system: SR leukemia
MALME-3M melanoma = system: MALME-3M melanoma
MOLT-4 leukemia = system: MOLT-4 leukemia
HCT-15 colon = system: HCT-15 colon
HCC-2998 colon = system: HCC-2998 colon
EKVX NSCLC = system: EKVX NSCLC
LOX IMVI melanoma = system: LOX IMVI melanoma
RXF 393 renal = system: RXF 393 renal
HOP-62 NSCLC = system: HOP-62 NSCLC
SNB-75 CNS = system: SNB-75 CNS
A498 renal = system: A498 renal
786-0 renal = system: 786-0 renal
K-562 leukemia = system: K-562 leukemia
M14 melanoma = system: M14 melanoma
HT29 colon = system: HT29 colon
HL-60(TB) leukemia = system: HL-60(TB) leukemia
SK-MEL-5 melanoma = system: SK-MEL-5 melanoma
NCI-H226 lung = system: NCI-H226 lung
CCRF-CEM leukemia = system: CCRF-CEM leukemia
PC-3 prostate = system: PC-3 prostate
SNB-19 CNS = system: SNB-19 CNS
COLO 205 colon = system: COLO 205 colon
OVCAR-3 ovarian = system: OVCAR-3 ovarian
OVCAR-4 ovarian = system: OVCAR-4 ovarian
HCT-116 colon = system: HCT-116 colon
MDA-MB-435 = system: MDA-MB-435
DU-145 prostate = system: DU-145 prostate
SF-539 CNS = system: SF-539 CNS
SW-620 colon = system: SW-620 colon
UO-31 renal = system: UO-31 renal
SK-MEL-28 melanoma = system: SK-MEL-28 melanoma
MCF7 breast = system: MCF7 breast
OVCAR-8 ovarian = system: OVCAR-8 ovarian
OVCAR-5 ovarian = system: OVCAR-5 ovarian
BT-549 breast = system: BT-549 breast
SK-MEL-2 melanoma = system: SK-MEL-2 melanoma
CAKI-1 renal = system: CAKI-1 renal

Measured: TGI

O[C@H]1[C@H](O)[C@@H](O)[C@@]2(O)C[C@@H](O)[C@@H]1N2
not listed: OVCAR-5 ovarian | BT-549 breast | SK-MEL-2 melanoma | CAKI-1 renal
> 100 µM: all other assays above

CSCCC(NC(=O)Cc1ccc(C(=O)c2ccccc2)cc1)C(=O)O (stereo unspecified)
not listed: SR leukemia
> 100 µM: all other assays above

From PubChem BioAssay (NCI)
